The record followed here is patent US20070155955A1, “Amylin aggregation inhibitors and use thereof” (APPLIED RESEARCH SYSTEMS ARS HOLDING N.V., priority 2003, published 2007).

No end group written: not given here. Where only a bound is given, the exact number is not on record here.

This data set in a line: In vitro peptide solubility assay (qualitative, pellet after centrifugation). Conditions: Tris buffer, pH 7.4; read-out: Solubilty. The data set is classed as physicochemical. The method, then:
Solubility of peptides of the invention was obtained using a qualitative assay where the peptide was dissolved in Tris buffer, pH 7.4 at 1, 5, or 10 mg/ml, vortexed briefly, and then centrifuged at 16,000 g for 30 min.

DFGAPL [SEQ ID NO. 2]: the solubility is > 10000 µg/mL.

Take NFGAPLS [SEQ ID NO. 11]: the solubility is < 1000 µg/mL. The same measure for “Ac-DFGAPL-NH2 (N-terminus and C-terminus assumed) [SEQ ID NO. 3]”: > 10000 µg/mL; for DFGAPLD [SEQ ID NO. 4]: > 10000 µg/mL; for NFGAILS [SEQ ID NO. 10]: < 200 µg/mL. Consider DFGAILD [SEQ ID NO. 12], for which the solubility is ≥ 2000 µg/mL.
